Entries after “also recorded” stand apart in the source; their conditions may differ.
Key:
[1] = tested on: lymphatic leukemia L-1210; assay: Antitumor activity, lymphatic leukemia L-1210; assay type: in vivo, mice
Method: (§1) Apart from the tests on Ehrlich ascitic tumor, giniquine was studied on twelve more inoculated tumors. Seven tumors (melanoma B16, sarcoma AK, large intestine carcinoma acatol-1, sarcoma 180, adenocarcinoma 755, Lewis lung carcinoma and sarcoma 37) were inoculated subcutaneously with 50 mg of tumoral cells per mouse. Four tumors (lymphatic leukemies L 5178, L 5178Y, L 1210 and P-388) were inoculated intraperitoneally with 10^6 cells per mouse. One tumor (La, hemocytoblastosis) was inoculated intraperitoneally by injecting 50 mg of cell suspension of spleen and liver of mice suffering La hemocytoblastosis, per mouse. Giniquine was injected intraperitoneally five times for seven days: 1,2,3,4,7 days or 3,4,5,6,7 days after the implantation of tumor. The rate of deceleration of the tumor growth was established 14 days after the ultimate injection of giniquine; life of test animals was recorded for 60 days.

[2] = LD50 / toxicity, mice with 7-days Ehrlich ascitic tumor; assay type: in vivo; settings: for LD50: mouse, in vivo
Kidneys = assay: In vivo biosynthesis of DNA, RNA and protein in kidneys; set-up: species or system mice; settings: 24 hours, intraperitoneal 28 mg/kg
Method: (§2) The influence of giniquine on biosynthetic processes in the in vivo tests was studied on common white mice of a mass of 25-35 g with Ehrlich ascitic tumor.
(§3) The mice were divided into two groups. The animals in the first group were given a single injection of the preparation in differing doses, and the animals in the second group were treated with distilled water. Three series of experiments were conducted. In the first series of tests (16 mice) the preparation was injected in a dose of 100 mg/kg ([…] dose), and the animals were decapitated one hour after the injection; in the second test series (16 mice) the animals were slaughtered 3 hours after the injection with other conditions being the same. In the third test series (35 mice) the influence of giniquine on plastic metabolism in tumor cells and normal tissues was studied 24 hours after the injection of a 0.33% solution of the preparation in a dose of 28 mg/kg (therapeutical dose).
(§4) Labeled precursors of nucleic acids and protein were injected intraperitoneally one hour before the slaughter of the animals (50 μc/100 g). Ascitic fluid, as well as liver and spleen, mucous membrane of small intestine, brain, kidneys and lungs were taken for analysis. 10% suspension was prepared from tumor cells, and 10% homogenates were prepared from tissues in a physiological solution.
(§5) Tumor cells and tissue homogenates for precipitation of nucleic acids were treated with 57% perchloric acid (10:1). […] Radioactivity of DNA and RNA fractions was measured by means of a liquid scintillation counter. The quantity of DNA and RNA was determined by spectrophotometry: the quantity of DNA was determined with diphenylamine, and RNA- with orcin.
(§6) To prepare protein hydrolysate, the suspension of tumoral cells and homogenates of normal tissues were treated with cool 10% trichloracetic acid (1:4), with subsequent centrifuging at 2000 g for ten minutes. […] The radioactivity was measured by means of a liquid scintillation counter. Protein was quantitatively determined by spectrophotometry using a microbiuret reaction.

sarcoma 37 = assay: Antitumor activity, life prolongation, sarcoma 37; assay type: in vivo, mice
Method: as §1

sarcoma AK = assay: Antitumor activity, sarcoma AK; assay type: in vivo, mice
Method: as §1

[3] = tested on: lymphatic leukemia L 5178Y; assay: Antitumor activity, lymphatic leukemia L 5178Y; assay type: in vivo, mice
Method: as §1

[4] = tested on: normal tissues (mucous membrane of small intestine, liver, spleen, brain, kidneys, lungs); assay: In vivo biosynthesis of macromolecules in normal tissues; set-up: species or system mice; settings: 24 hours, 28 mg/kg
Method: as §2
The mice were divided into two groups. The animals in the first group were given a single injection of the preparation in differing doses, and the animals in the second group were treated with distilled water. Three series of experiments were conducted. […]
as §5, §6

adenocarcinoma 755 = assay: Antitumor activity, adenocarcinoma 755; assay type: in vivo, mice
Method: as §1

Brain = assay: In vivo biosynthesis of DNA, RNA and protein in brain; set-up: species or system mice; settings: 24 hours, intraperitoneal 28 mg/kg
Method: as §2, §3, §4, §5, §6

[5] = tested on: lymphatic leukemia L 5178; assay: Antitumor activity, life prolongation, lymphatic leukemia L 5178; assay type: in vivo, mice
Method: as §1

[6] = BDF1 female mice, intraperitoneal, days 1,2,3,4,7, optim. daily dose 6.0 mg/kg

With `CCN(CC)CCCC(C)NC(=O)c1cc(C=Cc2ccc([N+](=O)[O-])o2)nc2ccccc12` (stereo not drawn) [giniquine, 2-[2'-(5"-nitrofuryl-2")vinyl]quinoline-4-carboxylic acid (α-methyl-δ-diethylaminobutyl)amide triphosphate] the germicidal activity (Germicidal activity) was “exhibits a germicidal activity; also recorded: combines in itself both actions”, the Max. life prolong. ([1]; BDF1 male mice, intraperitoneal, days 1,2,3,4,7, optimum daily dose 6.0 mg/kg) was 15% and the “sensitivity (in words)” value ([1]; L-1210) was “practically insensitive”. For the same compound, the “toxicity compared to intraperitoneal injection” value ([2]; intravenous injection) was “five times greater”, the LD50 ([2]; ip, intraperitoneal, ten injections, female) was 10 mg/kg and the LD50 ([2]; ip, intraperitoneal, ten injections, male) was 7 mg/kg. For the same compound, the LD50 ([2]; iv, single injection, female) was 17.5 mg/kg, the LD50 ([2]; iv, single injection, male) was 20 mg/kg and the “Incorporation of specific precursors, DNA” value (Kidneys) was 178.0 % of control. The “Incorporation of specific precursors, Protein” value (Kidneys) was 105.0 % of control, the “Incorporation of specific precursors, RNA” value (Kidneys) was 148.0 % of control and the Max. life prolong. (sarcoma 37; common female mice, intraperitoneal, days 1,2,3,4,7, daily doses 6.0-28.0 mg/kg, optimum daily dose 0) was 0%. For the same compound, the “antiblastic activity / sensitivity (in words)” value (sarcoma 37; sarcoma 37) was “practically insensitive”, the “Deceleration of tumor growth” value (sarcoma AK; common female mice, intraperitoneal, days 3,4,5,6,7, optim. daily dose 2.2 mg/kg) was 46% and the “Max. prolongation of life” value (sarcoma AK; common female mice, intraperitoneal, days 3,4,5,6,7, optim. daily dose 10.0 mg/kg) was 15%. The “antitumor effect (in words)” value (sarcoma AK; sarcoma AK) was “slight antitumor effect”, the Max. life prolong. ([3]; BDF1 female mice, intraperitoneal, days 1,2,3,4,7, optimum daily dose 6.0 mg/kg) was 5% and the “sensitivity (in words)” value ([3]; L-5178Y) was “practically insensitive”. For the same compound, the “biosynthesis processes in normal tissues (in words)” value [4] was “a stimulation of biosynthesis processes”, the “Deceleration of tumor growth” value (adenocarcinoma 755; [6]) was 28% and the “Max. prolongation of life” value (adenocarcinoma 755; [6]) was 25%. For the same compound, the “antitumor effect (in words)” value (adenocarcinoma 755; adenocarcinoma 755) was “slight antitumor effect”, the “Incorporation of specific precursors, DNA” value (Brain) was 125.0 % of control and the “Incorporation of specific precursors, Protein” value (Brain) was 105.0 % of control. For the same compound, the “Incorporation of specific precursors, RNA” value (Brain) was 124.0 % of control, the Max. life prolong. ([5]; common female mice, intraperitoneal, days 1,2,3,4,7, optimum daily dose 10.0 mg/kg) was 30% and the “antiblastic activity / sensitivity (in words)” value ([5]; lymphatic leukemia L 5178) was “slight antitumor effect”.
